Assay results: ChEMBL document CHEMBL3885881, “DrugMatrix”

Species: Rattus norvegicus
Experiment: DrugMatrix - Regimen: Daily Repeat
Assay type: toxicity, organism-based, Sprague-Dawley
Parameters: regimen Daily Repeat, gender Male, age 6-8 weeks
Details: in vivo, po, route oral GAVAGE, vehicle 100 % WATER; for ABSOLUTE BASOPHIL / ABSOLUTE EOSINOPHIL / ABSOLUTE LYMPHOCYTE / ABSOLUTE MONOCYTE / ABSOLUTE SEGMENTED NEUTROPHIL / BASOPHIL / EOSINOPHIL / ERYTHROCYTE COUNT / HEMATOCRIT / HEMOGLOBIN / LEUKOCYTE COUNT / LYMPHOCYTE / MEAN CORPUSCULAR HEMOGLOBIN / MEAN CORPUSCULAR HEMOGLOBIN CONCENTRATION / MEAN CORPUSCULAR VOLUME / MONOCYTE / NEUTROPHIL / NUCLEATED RED BLOOD CELLS / PLATELET COUNT: tissue Blood; for ALANINE AMINOTRANSFERASE / ALBUMIN / ALKALINE PHOSPHATASE / ASPARTATE AMINOTRANSFERASE / BLOOD UREA NITROGEN / CARBON DIOXIDE / CHLORIDE / CHOLESTEROL / CREATINE PHOSPHOKINASE / CREATININE / GLUCOSE / LACTATE DEHYDROGENASE / LIPASE / PHOSPHORUS / POTASSIUM / SODIUM / TOTAL BILIRUBIN / TOTAL PROTEIN / URIC ACID: tissue Plasma
[1] = 8 mg/kg, 120 h, dose level Low, time 5 day
[2] = 100 mg/kg, 72 h, dose level High, time 3 day
[3] = 100 mg/kg, 120 h, dose level High, time 5 day

`CCN(C(C)=O)c1cccc(-c2ccnc3c(C#N)cnn23)c1` [ZALEPLON] was tested, and the “ABSOLUTE BASOPHIL” value [1] was 0 CELLS/uL, the “ABSOLUTE EOSINOPHIL” value [1] was 56.67 CELLS/uL and the “ABSOLUTE LYMPHOCYTE” value [1] was 12514.33 CELLS/uL. The “ABSOLUTE MONOCYTE” value [1] was 39.33 CELLS/uL, the “ABSOLUTE SEGMENTED NEUTROPHIL” value [1] was 1223 CELLS/uL and the BASOPHIL [1] was 0%. The EOSINOPHIL [1] was 0.33%, the “ERYTHROCYTE COUNT” value [1] was 5.65 x10E6/uL and the HEMATOCRIT [1] was 36.27%. For the same molecule, the HEMOGLOBIN [1] was 14.43 G/DL, the “LEUKOCYTE COUNT” value [1] was 13.83 x10E3/uL and the LYMPHOCYTE [1] was 90.67%. The “MEAN CORPUSCULAR HEMOGLOBIN” value [1] was 25.57 pg, the “MEAN CORPUSCULAR HEMOGLOBIN CONCENTRATION” value [1] was 39.8 G/DL and the “MEAN CORPUSCULAR VOLUME” value [1] was 64.17 fL. The MONOCYTE [1] was 0.33%, the NEUTROPHIL [1] was 8.67% and the “NUCLEATED RED BLOOD CELLS” value [1] was 0.33 /100WBC. The “PLATELET COUNT” value [1] was 1230.33 x10E3/uL, the “ALANINE AMINOTRANSFERASE” value [1] was 55.33 u/L and the ALBUMIN [1] was 4.17 G/DL. For the same molecule, the “ALKALINE PHOSPHATASE” value [1] was 388.67 u/L, the “ASPARTATE AMINOTRANSFERASE” value [1] was 80.67 u/L and the “BLOOD UREA NITROGEN” value [1] was 14.33 mg/dL. The “CARBON DIOXIDE” value [1] was 31.67 mmol/L, the CHLORIDE [1] was 101.67 MEQ/L and the CHOLESTEROL [1] was 66.33 mg/dL. For the same molecule, the “CREATINE PHOSPHOKINASE” value [1] was 267.33 u/L, the CREATININE [1] was 0.15 mg/dL and the GLUCOSE [1] was 126.67 mg/dL. For the same molecule, the “LACTATE DEHYDROGENASE” value [1] was 359 u/L, the LIPASE [1] was 11.33 u/L and the PHOSPHORUS [1] was 11.67 mg/dL. The POTASSIUM [1] was 6.04 MEQ/L, the SODIUM [1] was 144.43 MEQ/L and the “TOTAL BILIRUBIN” value [1] was 0.17 mg/dL. For the same molecule, the “TOTAL PROTEIN” value [1] was 6 G/DL, the “URIC ACID” value [1] was 1.4 mg/dL and the “ABSOLUTE BASOPHIL” value [2] was 0 CELLS/uL. For the same molecule, the “ABSOLUTE EOSINOPHIL” value [2] was 0 CELLS/uL, the “ABSOLUTE LYMPHOCYTE” value [2] was 12984 CELLS/uL and the “ABSOLUTE MONOCYTE” value [2] was 96.67 CELLS/uL. For the same molecule, the “ABSOLUTE SEGMENTED NEUTROPHIL” value [2] was 1352.67 CELLS/uL, the BASOPHIL [2] was 0% and the EOSINOPHIL [2] was 0%. The “ERYTHROCYTE COUNT” value [2] was 5.72 x10E6/uL, the HEMATOCRIT [2] was 36.9% and the HEMOGLOBIN [2] was 14 G/DL. The “LEUKOCYTE COUNT” value [2] was 14.43 x10E3/uL, the LYMPHOCYTE [2] was 90% and the “MEAN CORPUSCULAR HEMOGLOBIN” value [2] was 24.5 pg. For the same molecule, the “MEAN CORPUSCULAR HEMOGLOBIN CONCENTRATION” value [2] was 37.97 G/DL, the “MEAN CORPUSCULAR VOLUME” value [2] was 64.5 fL and the MONOCYTE [2] was 0.67%. The NEUTROPHIL [2] was 9.33%, the “NUCLEATED RED BLOOD CELLS” value [2] was 0 /100WBC and the “PLATELET COUNT” value [2] was 1335.67 x10E3/uL. The “ALANINE AMINOTRANSFERASE” value [2] was 82.33 u/L, the ALBUMIN [2] was 4.13 G/DL and the “ALKALINE PHOSPHATASE” value [2] was 449.67 u/L. For the same molecule, the “ASPARTATE AMINOTRANSFERASE” value [2] was 80 u/L, the “BLOOD UREA NITROGEN” value [2] was 11.67 mg/dL and the “CARBON DIOXIDE” value [2] was 33.33 mmol/L. For the same molecule, the CHLORIDE [2] was 106 MEQ/L, the CHOLESTEROL [2] was 71 mg/dL and the “CREATINE PHOSPHOKINASE” value [2] was 245.67 u/L. For the same molecule, the CREATININE [2] was 0.2 mg/dL, the GLUCOSE [2] was 139 mg/dL and the “LACTATE DEHYDROGENASE” value [2] was 132.33 u/L. For the same molecule, the LIPASE [2] was 10 u/L, the PHOSPHORUS [2] was 11.2 mg/dL and the POTASSIUM [2] was 5.9 MEQ/L. The SODIUM [2] was 144.73 MEQ/L, the “TOTAL BILIRUBIN” value [2] was 0.17 mg/dL and the “TOTAL PROTEIN” value [2] was 5.93 G/DL. For the same molecule, the “URIC ACID” value [2] was 1.4 mg/dL, the “ABSOLUTE BASOPHIL” value [3] was 0 CELLS/uL and the “ABSOLUTE EOSINOPHIL” value [3] was 0 CELLS/uL. For the same molecule, the “ABSOLUTE LYMPHOCYTE” value [3] was 12362.67 CELLS/uL, the “ABSOLUTE MONOCYTE” value [3] was 101.33 CELLS/uL and the “ABSOLUTE SEGMENTED NEUTROPHIL” value [3] was 1236 CELLS/uL. The BASOPHIL [3] was 0%, the EOSINOPHIL [3] was 0% and the “ERYTHROCYTE COUNT” value [3] was 6.29 x10E6/uL. The HEMATOCRIT [3] was 38.53%, the HEMOGLOBIN [3] was 15 G/DL and the “LEUKOCYTE COUNT” value [3] was 13.7 x10E3/uL. For the same molecule, the LYMPHOCYTE [3] was 89.33%, the “MEAN CORPUSCULAR HEMOGLOBIN” value [3] was 23.83 pg and the “MEAN CORPUSCULAR HEMOGLOBIN CONCENTRATION” value [3] was 38.93 G/DL. The “MEAN CORPUSCULAR VOLUME” value [3] was 61.3 fL, the MONOCYTE [3] was 0.67% and the NEUTROPHIL [3] was 10%. For the same molecule, the “NUCLEATED RED BLOOD CELLS” value [3] was 0 /100WBC, the “PLATELET COUNT” value [3] was 1219.33 x10E3/uL and the “ALANINE AMINOTRANSFERASE” value [3] was 61.67 u/L. For the same molecule, the ALBUMIN [3] was 4.3 G/DL, the “ALKALINE PHOSPHATASE” value [3] was 331.33 u/L and the “ASPARTATE AMINOTRANSFERASE” value [3] was 91 u/L. The “BLOOD UREA NITROGEN” value [3] was 14.67 mg/dL, the “CARBON DIOXIDE” value [3] was 28.67 mmol/L and the CHLORIDE [3] was 102 MEQ/L. The CHOLESTEROL [3] was 83.33 mg/dL, the “CREATINE PHOSPHOKINASE” value [3] was 520 u/L and the CREATININE [3] was 0.17 mg/dL. The GLUCOSE [3] was 157 mg/dL, the “LACTATE DEHYDROGENASE” value [3] was 238.67 u/L and the LIPASE [3] was 11 u/L. The PHOSPHORUS [3] was 11.7 mg/dL, the POTASSIUM [3] was 6.45 MEQ/L and the SODIUM [3] was 144.67 MEQ/L. The “TOTAL BILIRUBIN” value [3] was 0.2 mg/dL, the “TOTAL PROTEIN” value [3] was 6.53 G/DL and the “URIC ACID” value [3] was 2.47 mg/dL.
